The source of these data is patent publication US20110053985A1, “NOVEL PIPERIDINE-4-CARBOXYLIC ACID PHENYL-ALKYL-AMIDE DERIVATIVES AND THEIR USE AS MONOAMINE NEUROTRANSMITTER RE-UPTAKE INHIBITORS” (NEUROSEARCH A/S, priority 2008, published 2011).

Structures are written as SMILES. Counter-ions that a name gives are not always drawn.

In series [1] the target is T1, serotonine (5-HT) reuptake in synaptosomes (Rattus norvegicus, UniProt P31652).
T1 construct: serotonine (5-HT) in synaptosomes as described in WO 97/16451; from tissue; host or cells: synaptosomes (brain tissue)
T1 sequence (P31652 whole entry): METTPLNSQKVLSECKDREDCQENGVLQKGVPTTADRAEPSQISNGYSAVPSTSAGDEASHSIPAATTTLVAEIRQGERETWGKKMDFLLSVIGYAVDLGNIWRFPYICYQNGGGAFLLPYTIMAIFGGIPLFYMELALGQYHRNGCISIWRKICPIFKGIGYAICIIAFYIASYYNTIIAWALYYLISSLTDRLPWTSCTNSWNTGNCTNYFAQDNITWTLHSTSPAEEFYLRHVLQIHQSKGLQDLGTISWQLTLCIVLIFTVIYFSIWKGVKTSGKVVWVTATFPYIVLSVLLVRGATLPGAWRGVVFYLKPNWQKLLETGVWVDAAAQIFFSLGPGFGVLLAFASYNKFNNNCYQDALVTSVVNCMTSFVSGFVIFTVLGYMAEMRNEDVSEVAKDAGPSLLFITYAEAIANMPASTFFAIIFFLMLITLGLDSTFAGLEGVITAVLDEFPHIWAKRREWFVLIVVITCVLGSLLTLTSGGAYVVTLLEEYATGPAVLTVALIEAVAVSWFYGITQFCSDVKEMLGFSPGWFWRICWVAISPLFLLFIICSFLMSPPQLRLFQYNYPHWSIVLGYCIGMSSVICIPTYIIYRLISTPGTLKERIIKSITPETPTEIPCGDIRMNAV
In words: Inhibition of 5-HT reuptake in synaptosomes. It is filed as biochemical. The following applies: 3H-5-HT, read-out: 5-HT-uptake IC50. The source says:
(§1) Compounds of the invention may be tested for their ability to inhibit re-uptake of the monoamines dopamine, noradrenaline and serotonin in synaptosomes e.g. such as described in WO 97/30997 (NeuroSearch A/S) or WO 97/16451 (NeuroSearch NS). Based on the balanced activity observed in these tests the compound of the invention is considered useful for the treatment, prevention or alleviation of a disease or a disorder or a condition of a mammal, including a human, which disease, disorder or condition is responsive to inhibition of monoamine neurotransmitter re-uptake in the central nervous system.
(§2) Compounds were tested for their ability to inhibit the reuptake of the monoamine neurotransmitters dopamine (DA) noradrenaline (NA) and serotonine (5-HT) in synaptosomes as described in WO 97/16451 (NeuroSearch A/S).
(§3) The test values are given as IC50 (the concentration (μM) of the test substance which inhibits the specific binding of ^3H-DA, ^3H-NA, or ^3H-5-HT by 50%).

Series [2] deals with T2, dopamine (DA) reuptake in synaptosomes (Rattus norvegicus, UniProt P23977).
T2 construct: in synaptosomes as described in WO 97/16451; from tissue; host or cells: synaptosomes (brain tissue)
T2 sequence (P23977 whole entry): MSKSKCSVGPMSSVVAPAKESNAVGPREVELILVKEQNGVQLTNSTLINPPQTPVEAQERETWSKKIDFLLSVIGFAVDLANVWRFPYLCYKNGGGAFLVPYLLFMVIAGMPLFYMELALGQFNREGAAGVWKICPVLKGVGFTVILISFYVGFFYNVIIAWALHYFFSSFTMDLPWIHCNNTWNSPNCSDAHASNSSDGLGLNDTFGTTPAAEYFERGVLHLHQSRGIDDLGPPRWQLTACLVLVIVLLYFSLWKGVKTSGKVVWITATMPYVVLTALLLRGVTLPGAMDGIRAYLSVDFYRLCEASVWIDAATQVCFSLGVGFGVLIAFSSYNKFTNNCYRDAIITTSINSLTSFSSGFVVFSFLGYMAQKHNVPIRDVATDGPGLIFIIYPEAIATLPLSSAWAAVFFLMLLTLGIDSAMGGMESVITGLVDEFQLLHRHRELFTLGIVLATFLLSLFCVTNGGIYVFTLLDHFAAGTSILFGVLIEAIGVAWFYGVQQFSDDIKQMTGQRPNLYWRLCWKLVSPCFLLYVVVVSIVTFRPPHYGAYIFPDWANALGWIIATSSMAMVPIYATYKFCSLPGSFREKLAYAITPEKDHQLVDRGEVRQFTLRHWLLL
In words: Inhibition of DA reuptake in synaptosomes. The following applies: 3H-DA, read-out: DA-uptake IC50. It is filed as biochemical.
Description: as §1, §2, §3

Turning to `CCN(C(=O)C1CCNCC1)c1ccc(Br)c(Br)c1` [Compound C13, Piperidine-4-carboxylic acid (3,4-dibromo-phenyl)-ethyl-amide hydrochloric acid salt], the concentration for half-maximal inhibition (IC50) in series [1] worked out at 120 nM; in series [2], 4 nM.
In turn, `CCN(C(=O)C1CCNCC1)c1ccc(Cl)c(Cl)c1.O=C(O)C(F)(F)F` [Compound C1, Piperidine-4-carboxylic acid (3,4-dichloro-phenyl)-ethyl-amide trifluoroacetic acid salt] gave a melting point of 159.3 to 160.7 °C. Moreover, the IC50 in series [1] worked out at 370 nM. Moreover, the IC50 in series [2] stood at 21 nM.
On to `CCN(C(=O)C1CCNCC1)c1ccc(Cl)c(Br)c1` [Compound C7, Piperidine-4-carboxylic acid (3-bromo-4-chloro-phenyl)-ethyl-amide hydrochloric acid salt], for which the values for the IC50 in series [1] and in series [2] were 140 nM and 7.8 nM, respectively.
